# Measurements as given in patent US20050112128A1, “Inhibition of protein kinase c-mu (PKD) as a treatment for cardiac hypertrophy and heart failure” (Myogen, Inc. and Board of Regents, The University of Texas …, priority 2003, published 2005).
# Entries after “also recorded” stand apart in the source; their conditions may differ.
# Columns and labels:
# [1] = test system: nuclear export of GFP-HDAC5 in NRVMs; test: Quantitative HDAC5 nuclear export assay in NRVMs (Cellomics High Content Imaging System); type: cell-based, rat; details: 2 hrs
# [2] = molecular target: T1, PKD (Homo sapiens, UniProt Q15139); details: literature (Van Lint 2002; Gschwendt 1996; Haworth); cited from earlier work
# T1 sequence (Q15139 1-912): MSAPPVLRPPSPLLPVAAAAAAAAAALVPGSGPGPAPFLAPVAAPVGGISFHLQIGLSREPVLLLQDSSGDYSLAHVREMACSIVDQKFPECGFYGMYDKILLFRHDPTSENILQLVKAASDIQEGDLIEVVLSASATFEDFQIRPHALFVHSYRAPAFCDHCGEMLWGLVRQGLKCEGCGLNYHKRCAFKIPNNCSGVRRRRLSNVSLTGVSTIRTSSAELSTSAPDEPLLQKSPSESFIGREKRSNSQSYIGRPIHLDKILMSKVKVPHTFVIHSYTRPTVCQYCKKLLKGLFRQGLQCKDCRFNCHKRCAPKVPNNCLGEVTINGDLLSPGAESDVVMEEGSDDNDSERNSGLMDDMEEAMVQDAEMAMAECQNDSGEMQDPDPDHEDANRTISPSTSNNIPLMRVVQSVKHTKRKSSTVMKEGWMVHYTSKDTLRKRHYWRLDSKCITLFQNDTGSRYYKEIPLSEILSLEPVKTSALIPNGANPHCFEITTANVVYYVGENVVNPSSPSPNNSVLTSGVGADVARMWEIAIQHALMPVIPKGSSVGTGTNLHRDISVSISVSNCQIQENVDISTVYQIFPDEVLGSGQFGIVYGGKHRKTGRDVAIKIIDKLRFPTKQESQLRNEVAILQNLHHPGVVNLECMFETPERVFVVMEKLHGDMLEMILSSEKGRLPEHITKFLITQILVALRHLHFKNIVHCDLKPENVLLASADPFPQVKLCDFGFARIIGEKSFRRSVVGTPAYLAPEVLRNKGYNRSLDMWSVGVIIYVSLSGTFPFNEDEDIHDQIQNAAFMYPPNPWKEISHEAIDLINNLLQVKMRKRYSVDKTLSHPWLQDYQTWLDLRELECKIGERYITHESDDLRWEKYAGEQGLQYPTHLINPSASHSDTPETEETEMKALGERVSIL
# [3] = test system: association of HDAC5 and 14-3-3; test: Immunoprecipitation/immunoblotting of HDAC5 and 14-3-3 in NRVMs; type: cell-based, rat; details: inhibitor 10 μM, 1 hr before PE (20 μM) or ET-1 (50 nM) for 1 hr
# [4] = molecular target: T2, HDAC5-bound PKD (Rattus norvegicus, UniProt Q9WTQ1); type: biochemical; details: 10 μM inhibitor in kinase reaction mixture (post)
# T2 construct: Association of endogenous PKD with HDAC5 in cardiomyocytes; endogenous in cells; host or cells: neonatal rat ventricular myocytes; the kinase co-precipitated with adenoviral FLAG-HDAC5
# T2 sequence (Q9WTQ1 1-918): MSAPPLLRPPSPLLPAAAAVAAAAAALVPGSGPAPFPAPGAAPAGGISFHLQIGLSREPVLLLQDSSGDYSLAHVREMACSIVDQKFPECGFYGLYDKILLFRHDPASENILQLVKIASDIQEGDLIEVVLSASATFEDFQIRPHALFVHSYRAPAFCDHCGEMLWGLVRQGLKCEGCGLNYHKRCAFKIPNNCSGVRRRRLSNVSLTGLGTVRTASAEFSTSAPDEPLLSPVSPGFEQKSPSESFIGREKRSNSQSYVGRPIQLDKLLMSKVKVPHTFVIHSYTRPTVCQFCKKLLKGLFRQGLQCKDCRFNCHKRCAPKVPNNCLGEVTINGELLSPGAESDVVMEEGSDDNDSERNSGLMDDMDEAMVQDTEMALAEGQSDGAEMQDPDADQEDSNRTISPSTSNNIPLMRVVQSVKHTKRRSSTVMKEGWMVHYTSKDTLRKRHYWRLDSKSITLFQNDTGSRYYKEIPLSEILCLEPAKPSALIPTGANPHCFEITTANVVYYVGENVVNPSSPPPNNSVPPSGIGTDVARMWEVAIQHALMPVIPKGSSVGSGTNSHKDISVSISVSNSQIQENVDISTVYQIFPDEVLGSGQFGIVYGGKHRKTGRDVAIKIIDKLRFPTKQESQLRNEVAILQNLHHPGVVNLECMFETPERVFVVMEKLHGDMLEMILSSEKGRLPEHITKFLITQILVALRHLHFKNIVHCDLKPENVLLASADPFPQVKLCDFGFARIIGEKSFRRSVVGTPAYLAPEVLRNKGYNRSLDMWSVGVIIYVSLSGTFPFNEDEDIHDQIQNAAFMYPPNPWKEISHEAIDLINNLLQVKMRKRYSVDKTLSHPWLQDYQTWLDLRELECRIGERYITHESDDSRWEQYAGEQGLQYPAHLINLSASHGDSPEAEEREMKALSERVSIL
# [5] = test system: NRVMs; test: ANF immunostaining of cardiomyocytes (hypertrophy marker); type: cell-based, rat; details: PE 20 μM or PMA 100 nM, 24 hrs
# Method: FIGS. 3A-C—Inhibition of PKC-mediated cardiac hypertrophy by signalresistant HDAC5. NRVMs were cultured on 6-well dishes and infected with adenoviruses (MOI=10) encoding a LacZ control (Ad-LacZ) or FLAG-tagged HDAC5 harboring alanines in place of serines 259 and 498 (Ad-HDAC5 S/A), which are required for 14-3-3-mediated nuclear export. Cells were treated with PE (20 μM) or PMA (100 nM) for 24 hrs prior to analysis. FIG. 3A. Cells were fixed and sarcomeres visualized by indirect immunofluorescence with primary antibody specific for α-actinin and fluorescein-conjugated secondary antibody. FIG. 3B. ANF protein was detected by indirect immunofluorescence with anti-ANF primary antibody. FIG. 3C. Total RNA was harvested from cells and subjected to dot blot analysis with radiolabeled oligonucleotides specific for the indicated transcripts. RNA levels were quantified using a phosphorimager and are depicted as -fold change relative to amounts in unstimulated cells infected with Ad-LacZ. Values were normalized to GAPDH controls.
# Cell culture and transfection assays. COS cells were maintained in DMEM with FBS (10%), L-glutamine (2 mM), and penicillin-streptomycin. Transfection of COS cells was performed with Fugene 6 (Roche Molecular Biochemicals) according to manufacturer's instructions. […]
# [6] = test system: endogenous PKD; test: Co-immunoprecipitation of endogenous PKD with HDAC5 in NRVMs (total PKD and p-916 immunoblot); type: cell-based, rat; details: PE 20 μM 1 hr, absence or presence of Bis I 10 μM
# [7] = Takahashi et al., 1996; cited from earlier work
# [8] = test system: ras transformed cells; details: Taunton et al., 1996; cited from earlier work
compound,measurement,setting,value
Cn1c2ccccc2c2c3c(c4c5ccccc5n(CCC#N)c4c21)CNC3=O [Gö6976],block of ET-1-induced nuclear export of HDAC5,"[1]; NRVMs, ET-1 50 nM, inhibitor pre-treatment 30 min",efficiently blocked nuclear export of HDAC5
same,block of FBS-induced nuclear export of HDAC5,"[1]; NRVMs, FBS 10%, inhibitor pre-treatment 30 min",efficiently blocked nuclear export of HDAC5
same,block of PE-induced nuclear export of HDAC5,"[1]; NRVMs, PE 20 μM, inhibitor pre-treatment 30 min, KN93, wortmannin, staurosporine 1 mM, U1026, HA1077, Y-27632, DAG Kinase inhibitor II, SB216763, Bis I 10 mM, rapamycin 30 ng/ml, Gö6983 10 μM",efficiently blocked nuclear export of HDAC5
same,sensitivity of PKD to the inhibitor,[2],sensitive to Gö6976
same,block of association of HDAC5 and 14-3-3,[3],blocked association of HDAC5 and 14-3-3 in response to both PE and ET-1
same,"block of HDAC5 phosphorylation, inhibitor added directly to kinase reaction",[4],blocked phosphorylation of HDAC5; also recorded: blocked phosphoryl transfer to HDAC5
"CNC[C@H](O)c1cccc(O)c1 [PE, phenylephrine]",agonist-triggered nuclear export of HDAC5 in cardiomyocytes,"[1]; NRVMs infected with Ad-GFP-HDAC5, PE 0.1 to 20 μM, ET-1 50 nM, FBS 10%",triggered nuclear export of HDAC5 in a concentration-dependent manner; also recorded: triggered dose-dependent nuclear export of HDAC5
same,ANF protein expression,[5],prominent perinuclear ANF protein expression
same,activation of HDAC5-associated PKD,[6],became activated in a PKC-dependent manner
CC(/C=C/C(=O)NO)=C\[C@@H](C)C(=O)c1ccc(N(C)C)cc1 [Trichostatin A],immunosuppression in a mouse model,[7],induces immunsuppression in a mouse model
same,effect on acetylation and morphology of ras transformed cells,[8],induce hyperacetylation and cause reversion of ras transformed cells to normal morphology
